The text below walks through data of patent publication US11759455B2, “Substituted 1H-imidazo[4,5-b]pyridin-2(3H)-ones and their use as GLUN2B receptor modulators” (JANSSEN PHARMACEUTICA NV, priority 2016, dated 2023).

For this assay, the target named is T1, human GluN1/GluN2B NMDA receptors (Homo sapiens, UniProt Q13224).
T1 construct: expressed in transfected cells
Description: Cell-based calcium flux (FLIPR) assay on cloned human NR1/NR2B ion channels expressed in mammalian cells (standard and HTS buffer variants).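 Also: stable Tet-On inducible cell line, Ca2+ influx triggered by glutamate at about EC40 plus 10 µM glycine, fluorescent dye read-out over 5 min, normalized to control wells.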

Setting [1] is: standard assay buffer (0.5 mM MgCl2 in dye loading buffer; 137 mM NaCl, 4 mM KCl in assay buffer), human GluN1/GluN2B, read-out: NR2B IC50 (μM) standard assay.
[2] abbreviates: standard assay buffer (0.5 mM MgCl2 dye loading; 137 mM NaCl, 4 mM KCl assay buffer), human GluN1/GluN2B cells, read-out: NR2B IC50 (μM) standard assay.
Setting [3] is: HTS assay buffer (1.5 mM MgCl2 in dye loading buffer; 150 mM NaCl, 3 mM KCl in assay buffer), human GluN1/GluN2B, read-out: NR2B IC50 (μM) HTS assay.

Read-outs that look alike come from different tables or passages of the source.

T1 sequence (Q13224 27-1484, other chains not shown): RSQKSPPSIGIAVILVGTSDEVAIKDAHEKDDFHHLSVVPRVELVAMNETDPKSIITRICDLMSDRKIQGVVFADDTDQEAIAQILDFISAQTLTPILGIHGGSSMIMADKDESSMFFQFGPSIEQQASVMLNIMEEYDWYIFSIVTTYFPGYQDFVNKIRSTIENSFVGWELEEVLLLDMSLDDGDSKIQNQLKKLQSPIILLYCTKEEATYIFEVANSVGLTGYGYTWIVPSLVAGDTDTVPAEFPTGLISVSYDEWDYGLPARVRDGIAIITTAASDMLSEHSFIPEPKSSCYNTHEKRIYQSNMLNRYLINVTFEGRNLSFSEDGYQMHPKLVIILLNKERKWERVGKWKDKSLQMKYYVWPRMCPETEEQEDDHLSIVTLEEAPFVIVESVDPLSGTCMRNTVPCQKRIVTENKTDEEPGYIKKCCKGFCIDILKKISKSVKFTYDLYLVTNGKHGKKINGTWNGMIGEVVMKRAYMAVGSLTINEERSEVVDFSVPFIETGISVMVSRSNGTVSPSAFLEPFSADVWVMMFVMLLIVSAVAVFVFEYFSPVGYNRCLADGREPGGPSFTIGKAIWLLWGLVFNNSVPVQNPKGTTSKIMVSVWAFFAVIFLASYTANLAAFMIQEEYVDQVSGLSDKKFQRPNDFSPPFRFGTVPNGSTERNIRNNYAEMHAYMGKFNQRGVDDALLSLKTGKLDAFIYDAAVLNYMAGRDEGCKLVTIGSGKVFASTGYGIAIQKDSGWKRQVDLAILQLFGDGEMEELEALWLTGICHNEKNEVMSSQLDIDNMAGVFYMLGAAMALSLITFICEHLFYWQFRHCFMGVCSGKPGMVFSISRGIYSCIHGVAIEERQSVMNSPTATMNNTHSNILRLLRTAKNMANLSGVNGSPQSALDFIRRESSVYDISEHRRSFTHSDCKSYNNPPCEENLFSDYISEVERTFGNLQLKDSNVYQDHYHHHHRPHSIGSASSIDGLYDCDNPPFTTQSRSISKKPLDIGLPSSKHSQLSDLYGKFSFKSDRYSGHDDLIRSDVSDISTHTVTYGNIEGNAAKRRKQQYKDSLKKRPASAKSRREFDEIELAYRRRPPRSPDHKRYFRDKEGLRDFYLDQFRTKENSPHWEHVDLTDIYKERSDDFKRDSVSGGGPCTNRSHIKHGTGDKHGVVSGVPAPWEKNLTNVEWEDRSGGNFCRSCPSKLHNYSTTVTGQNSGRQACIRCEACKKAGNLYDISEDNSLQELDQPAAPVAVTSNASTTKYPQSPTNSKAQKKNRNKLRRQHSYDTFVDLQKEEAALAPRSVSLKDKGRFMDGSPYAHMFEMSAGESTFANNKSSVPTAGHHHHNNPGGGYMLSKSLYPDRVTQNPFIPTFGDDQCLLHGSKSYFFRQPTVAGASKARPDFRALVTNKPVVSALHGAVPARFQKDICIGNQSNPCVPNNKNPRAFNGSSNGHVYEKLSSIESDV

Turning to `O=C(Cn1c(=O)n(CF)c2ncc(-c3ccc(C(F)(F)F)s3)cc21)N1CC(F)C1` [Example 597, 1-[2-(3-Fluoroazetidin-1-yl)-2-oxo-ethyl]-3-(fluoromethyl)-6-[5-(trifluoromethyl)-2-thienyl]imidazo[4,5-b]pyridin-2-one], the IC50 under setting [1] turned out to be 0.063 µM.

For `Cc1nc(Cn2c(=O)[nH]c3ncc(-c4ccc(F)c(F)c4)cc32)no1` [Example 144, 6-(3,4-Difluorophenyl)-1-[(5-methyl-1,2,4-oxadiazol-3-yl)methyl]-3H-imidazo[4,5-b]pyridin-2-one], under setting [2], the IC50 was found to be 0.107 µM.

`CN(C)C(=O)Cn1c(=O)n(C)c2ncc(-c3ccc(C(F)F)s3)cc21` [Example 94, 2-[6-[5-(Difluoromethyl)-2-thienyl]-3-methyl-2-oxo-imidazo[4,5-b]pyridin-1-yl]-N,N-dimethyl-acetamide]: the IC50 under setting [2] was found to be 0.017 µM.

On to `O=C(Cn1c(=O)[nH]c2ncc(-c3cccc(C(F)(F)F)c3)cc21)NC1CC(F)(F)C1` [Example 195, N-(3,3-Difluorocyclobutyl)-2-[2-oxo-6-[3-(trifluoromethyl)phenyl]-3H-imidazo[4,5-b]pyridin-1-yl]acetamide], for which the IC50 under setting [2] worked out at 0.007 µM.

In the case of `Cc1noc(Cn2c(=O)n(C)c3ncc(-c4ccc(C)s4)cc32)n1` [Example 557, 3-Methyl-1-[(3-methyl-1,2,4-oxadiazol-5-yl)methyl]-6-(5-methyl-2-thienyl)imidazo[4,5-b]pyridin-2-one], under setting [1], the IC50 was 0.671 µM.

Consider `Cc1noc(Cn2c(=O)n(C)c3ncc(-c4ccc(F)c(F)c4)cc32)n1` [Example 77, 6-(3,4-Difluorophenyl)-3-methyl-1-[(3-methyl-1,2,4-oxadiazol-5-yl)methyl]imidazo[4,5-b]pyridin-2-one], for which the IC50 under setting [2] was determined as 0.457 µM.

As for `Cn1c(=O)n(Cc2cccnc2)c2cc(-c3ccc(F)c(F)c3F)cnc21` [Example 361, 3-Methyl-1-(3-pyridylmethyl)-6-(2,3,4-trifluorophenyl)imidazo[4,5-b]pyridin-2-one], under setting [1], the IC50 turned out to be 1.54 µM.

As for `Cn1c(=O)n(CC(=O)N2CCC2)c2cc(-c3ccc(CO)s3)cnc21` [Example 89, 1-[2-(Azetidin-1-yl)-2-oxo-ethyl]-6-[5-(hydroxymethyl)-2-thienyl]-3-methyl-imidazo[4,5-b]pyridin-2-one], the IC50 under setting [2] is 0.549 µM.

For `CCOC(=O)Cn1c(=O)n(C)c2ncc(-c3cccc(C(F)(F)F)c3)cc21` [Example 136, Ethyl 2-[3-methyl-2-oxo-6-[3-(trifluoromethyl)phenyl]imidazo[4,5-b]pyridin-1-yl]acetate], the IC50 under setting [2] came to 0.159 µM.

Take `COc1ccc(-c2cnc3[nH]c(=O)n(Cc4cccc(F)c4)c3c2)cc1C` [Example 498, 1-[(3-Fluorophenyl)methyl]-6-(4-methoxy-3-methyl-phenyl)-3H-imidazo[4,5-b]pyridin-2-one]: the IC50 under setting [1] stood at 2.22 µM.

Regarding `Cn1c(=O)n(Cc2cccnc2)c2cc(-c3cc(F)c(F)c(F)c3)cnc21` [Example 353, 3-Methyl-1-(3-pyridylmethyl)-6-(3,4,5-trifluorophenyl)imidazo[4,5-b]pyridin-2-one], the IC50 under setting [1] was 0.144 µM.

In the case of `O=c1[nH]c2ncc(-c3cccc(C(F)F)c3)cc2n1Cc1cccnc1` [Example 291, 6-[3-(Difluoromethyl)phenyl]-1-(3-pyridylmethyl)-3H-imidazo[4,5-b]pyridin-2-one], the IC50 under setting [2] turned out to be 0.022 µM.

Take `Cc1cc(-c2cnc3c(c2)n(Cc2cccnc2)c(=O)n3C)sc1Cl` [Example 365, 6-(5-Chloro-4-methyl-2-thienyl)-3-methyl-1-(3-pyridylmethyl)imidazo[4,5-b]pyridin-2-one]: under setting [1], the IC50 came to 0.063 µM.

In the case of `Cc1cccc(-c2cnc3c(c2)n(CC(=O)N2CC(F)C2)c(=O)n3C)c1F` [Example 405, 1-[2-(3-Fluoroazetidin-1-yl)-2-oxo-ethyl]-6-(2-fluoro-3-methyl-phenyl)-3-methyl-imidazo[4,5-b]pyridin-2-one], the IC50 under setting [1] is 0.022 µM.

Regarding `COc1ccc(-c2cnc3[nH]c(=O)n(CC4CC4)c3c2)cc1` [Example 471, 1-(Cyclopropylmethyl)-6-(4-methoxyphenyl)-3H-imidazo[4,5-b]pyridin-2-one], under setting [1], the IC50 turned out to be 1.8 µM.

With `O=c1[nH]c2ncc(-c3ccc(F)cc3)cc2n1Cc1ccccn1` [Example 286, 6-(4-Fluorophenyl)-1-(2-pyridylmethyl)-3H-imidazo[4,5-b]pyridin-2-one], the IC50 under setting [2] amounted to 1.98 µM.

In the case of `Cn1c(=O)n(CC(=O)N2CC(F)(F)C2)c2cc(-c3cccc(C(F)(F)F)c3)cnc21` [Example 138, 1-[2-(3,3-difluoroazetidin-1-yl)-2-oxo-ethyl]-3-methyl-6-[3-(trifluoromethyl)phenyl]imidazo[4,5-b]pyridin-2-one], the IC50 under setting [2] was 0.089 µM.

Take `O=C(Cn1c(=O)[nH]c2ncc(-c3cccc(C(F)(F)F)c3)cc21)NC1COC1` [Example 192, N-(Oxetan-3-yl)-2-[2-oxo-6-[3-(trifluoromethyl)phenyl]-3H-imidazo[4,5-b]pyridin-1-yl]acetamide]: the IC50 under setting [2] amounted to 0.052 µM.

With `Cn1c(=O)n(CC(=O)N2CC(F)C2)c2cc(-c3ccc(C4CC4)s3)cnc21` [Example 106, 6-(5-Cyclopropyl-2-thienyl)-1-[2-(3-fluoroazetidin-1-yl)-2-oxo-ethyl]-3-methyl-imidazo[4,5-b]pyridin-2-one], the IC50 under setting [2] came to 0.039 µM.

With `Cn1c(=O)n(CC(=O)N2CC(F)C2)c2cc(-c3ccc(CO)s3)cnc21` [Example 90, 1-[2-(3-Fluoroazetidin-1-yl)-2-oxo-ethyl]-6-[5-(hydroxymethyl)-2-thienyl]-3-methyl-imidazo[4,5-b]pyridin-2-one], under setting [2], the IC50 was found to be 0.915 µM.

Consider `O=C(Cn1c(=O)[nH]c2ncc(-c3ccc(Cl)cc3)cc21)NC1CC1` [Example 453, 2-[6-(4-Chlorophenyl)-2-oxo-3H-imidazo[4,5-b]pyridin-1-yl]-N-cyclopropyl-acetamide], for which the IC50 under setting [3] was 0.1 µM.

Take `CCC(=O)Cn1c(=O)n(C)c2ncc(-c3cccc(C4CC4)c3)cc21` [Example 392, 6-(3-Cyclopropylphenyl)-3-methyl-1-(2-oxobutyl)imidazo[4,5-b]pyridin-2-one]: the IC50 under setting [1] stood at 0.324 µM.

As for `COc1cc(F)ccc1-c1cnc2[nH]c(=O)n(Cc3ccc(F)cc3)c2c1` [Example 501, 6-(4-Fluoro-2-methoxy-phenyl)-1-[(4-fluorophenyl)methyl]-3H-imidazo[4,5-b]pyridin-2-one], the IC50 under setting [3] is 0.79 µM.

In the case of `Cc1cccnc1Cn1c(=O)[nH]c2ncc(-c3cc(F)cc(F)c3)cc21` [Example 318, 6-(3,5-Difluorophenyl)-1-[(3-methyl-2-pyridyl)methyl]-3H-imidazo[4,5-b]pyridin-2-one], the IC50 under setting [1] is above 10 µM.

In the case of `Cc1nnc(Cn2c(=O)n(C)c3ncc(-c4ccc(F)c(F)c4)cc32)o1` [Example 73, 6-(3,4-Difluorophenyl)-3-methyl-1-[(5-methyl-1,3,4-oxadiazol-2-yl)methyl]imidazo[4,5-b]pyridin-2-one], under setting [2], the IC50 was 0.314 µM.

For `Cc1cc(-c2cnc3[nH]c(=O)n(Cc4ncccc4C)c3c2)ccc1F` [Example 316, 6-(4-Fluoro-3-methyl-phenyl)-1-[(3-methyl-2-pyridyl)methyl]-3H-imidazo[4,5-b]pyridin-2-one], under setting [2], the IC50 was 0.114 µM.

Turning to `Cn1c(=O)n(Cc2cccnn2)c2cc(-c3ccc(F)c(F)c3)cnc21` [Example 61, 6-(3,4-Difluorophenyl)-3-methyl-1-(pyridazin-3-ylmethyl)imidazo[4,5-b]pyridin-2-one], the IC50 under setting [2] was found to be 0.223 µM.

For the molecule `Cn1c(=O)n(CC(=O)N2CC(F)(F)C2)c2cc(-c3ccc(Cl)c(OC(F)F)c3)cnc21` [Example 594, 6-[4-Chloro-3-(difluoromethoxy)phenyl]-1-[2-(3,3-difluoroazetidin-1-yl)-2-oxo-ethyl]-3-methyl-imidazo[4,5-b]pyridin-2-one], the IC50 under setting [1] is 0.082 µM.

Regarding `CN(C)C(=O)Cn1c(=O)n(C)c2ncc(-c3ccc(F)c(F)c3)cc21` [Example 421, 2-[6-(3,4-Difluorophenyl)-3-methyl-2-oxo-imidazo[4,5-b]pyridin-1-yl]-N,N-dimethyl-acetamide], the IC50 under setting [1] was 0.053 µM.

Regarding `O=C(Cn1c(=O)[nH]c2ncc(-c3ccc(F)c(Cl)c3)cc21)c1cccs1` [Example 464, 6-(3-Chloro-4-fluoro-phenyl)-1-[2-oxo-2-(2-thienyl)ethyl]-3H-imidazo[4,5-b]pyridin-2-one], the IC50 under setting [1] was determined as 0.359 µM.

In the case of `Cn1c(=O)n(CC(=O)N2CCC2)c2cc(-c3csc(C(F)(F)F)n3)cnc21` [Example 107, 1-[2-(Azetidin-1-yl)-2-oxo-ethyl]-3-methyl-6-[2-(trifluoromethyl)thiazol-4-yl]imidazo[4,5-b]pyridin-2-one], the IC50 under setting [2] was found to be 0.087 µM.

With `O=C(Cn1c(=O)[nH]c2ncc(-c3ccc(C(F)(F)F)s3)cc21)N1CCC1` [Example 323, 1-[2-(azetidin-1-yl)-2-oxo-ethyl]-6-[5-(trifluoromethyl)-2-thienyl]-3H-imidazo[4,5-b]pyridin-2-one], under setting [1], the IC50 was found to be 0.041 µM.

Turning to `CN(C)C(=O)Cn1c(=O)n(C)c2ncc(-c3csc(C(F)(F)F)c3)cc21` [Example 101, N,N-Dimethyl-2-[3-methyl-2-oxo-6-[5-(trifluoromethyl)-3-thienyl]imidazo[4,5-b]pyridin-1-yl]acetamide], the IC50 under setting [2] stood at 0.019 µM.

With `Cn1c(=O)n(Cc2ccccn2)c2cc(-c3ccc(F)c(F)c3)cnc21` [Example 62, 6-(3,4-difluorophenyl)-3-methyl-1-(2-pyridylmethyl)imidazo[4,5-b]pyridin-2-one], under setting [2], the IC50 worked out at 2 µM.

Consider `Cn1c(=O)n(Cc2cccnc2)c2cc(-c3ccc(F)c(Cl)c3)cnc21` [Example 355, 6-(3-Chloro-4-fluoro-phenyl)-3-methyl-1-(3-pyridylmethyl)imidazo[4,5-b]pyridin-2-one], for which, under setting [1], the IC50 was found to be 0.044 µM.
